# Key:
# mice = assay: Serum cytokines (IL-12 p40, IL-6, TNF-α) after subcutaneous injection in mice; assay type: in vivo; conditions: 20 ug subcutaneous, blood 2 hours later
# Protocol: Blood was collected 2 hours later. For the LPS positive control group, mice were injected intraperitoneally with a 200 ul volume, and blood was collected 1.5 hours later (i.e., at the peak of LPS induced TNF-α activity). The blood was clotted and the serum was prepared and stored at −80° C. until assayed. Serum cytokines were assayed using Biosource cytoscreen kits for TNF-α and Pharmingen antibody pairs for mIL-6 and mIL-12. All samples were assayed in duplicate.
# human PBMCs = assay: Human PBMC cytokine response assay (IFN-γ and IFN-α in cell-free medium by ELISA), with or without cPLGA; assay type: cell-based; conditions: for immunomodulatory activity (IFN-γ / IFN-α secretion), in words: used alone (no cPLGA);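 on IFN-α (pg/ml) mean: 20 µg/mL compound for 24 hours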;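 on IFN-γ (pg/ml) mean: 20 µg/mL compound for 24 hours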
# mouse splenocytes = assay: Mouse splenocyte cytokine secretion (IL-6, IL-12, IFN by ELISA); assay type: cell-based, BALB/c mice; parameters: IFN: unit not given beside the values; conditions: 24 h
# Protocol: Polynucleotides and chimeric compounds were tested for immunostimulatory activity on mouse splenocytes. Immunostimulation was assessed by measurement of cytokine secretion into the culture media. Cytokine levels in the culture supernatant were determined by enzyme-linked immunosorbent assay (ELISA) tests.
# Cells were isolated and prepared using standard techniques. Spleens of 8 to 20 week-old BALB/c mice were harvested and the splenocytes isolated using standard teasing and treatment with ACK lysing buffer from BioWhittaker, Inc. Four spleens were pooled in this experiment. Isolated cells were washed in RPMI 1640 media supplemented with 2% heat-inactivated fetal calf serum (FCS), 50 μM 2-mercaptoethanol, 1% penicillin-streptomycin, and 2 mM L-glutamine and resuspended at approximately […] in 10% FCS/RPMI (RPMI 1640 media with 10% heat-inactivated FCS, 50 μM 2-mercaptoethanol, 1% penicillin-streptomycin, and 2 mM L-glutamine).
# Cell cultures were set up in triplicate with approximately 7×10^5 cells/well in a 96-well flat microtiter plate in 100 μl 10% FCS/RPMI with the cells allowed to rest for at lest 1 hour after plating. The indicated test compounds were incubated (at the indicated concentrations) for 24 hours at 37° C. Cell supernatants were harvested and frozen at −80° C. Cytokine production by the cells was determined by ELISAs, as shown in 19.
# CD19+ B cells = assay: Human B cell proliferation assay (3H-thymidine incorporation); conditions: B cells, 2 μg/ml, Experiment B; for mean of both: mean of donors 121 and 194
# [1] = 20 μg/ml (mixtures: 20 μg/ml total), 24 h
# [2] = mean of Donors 1-2, 20 μg/ml, 24 h
# [3] = mean of Donors 5-6, 20 μg/ml (mixtures: 20 μg/ml total), 24 h
# [4] = mean of Donors 7-8, 20 μg/ml, 24 h
# [5] = Table 25, mean of donors 28250-28253
# [6] = donor 28066, 20 ug/ml, 24 h, + PLGA = premixed with 100 μg/ml cPLGA
# [7] = donor 28067, 20 ug/ml, 24 h, + PLGA = premixed with 100 μg/ml cPLGA
# [8] = donor 28068, 20 ug/ml, 24 h, + PLGA = premixed with 100 μg/ml cPLGA
# [9] = mean of donors 28065-28068, 20 ug/ml, 24 h, + PLGA = premixed with 100 μg/ml cPLGA
substance,measurement,setting,value
5′-AACGTT-3′ [Compound P-11],"induction of serum IL-12 p40, IL-6 and TNF-α, in words",mice,inactive
5′-TCGTCG-3′- C3-5′-ACGTTCG-3′-C3-5′-AGATGAT-3′ [Compound C-11],IFN-α (pg/ml) Donor 1,"human PBMCs; 20 μg/ml, 24 h",119 pg/mL
same,IFN-γ (pg/ml) Donor 1,"human PBMCs; 20 μg/ml, 24 h",2308 pg/mL
same,IFN-α (pg/ml) Donor 2,"human PBMCs; 20 μg/ml, 24 h",0 pg/mL
same,IFN-γ (pg/ml) Donor 2,"human PBMCs; 20 μg/ml, 24 h",270 pg/mL
same,IFN-α (pg/ml) Donor 5,human PBMCs; [1],76 pg/mL
same,IFN-γ (pg/ml) Donor 5,human PBMCs; [1],25 pg/mL
same,IFN-α (pg/ml) Donor 6,human PBMCs; [1],175 pg/mL
same,IFN-γ (pg/ml) Donor 6,human PBMCs; [1],792 pg/mL
same,IFN-α (pg/ml) Donor 7,"human PBMCs; 20 μg/ml, 24 h",6 pg/mL
same,IFN-γ (pg/ml) Donor 7,"human PBMCs; 20 μg/ml, 24 h",5 pg/mL
same,IFN-α (pg/ml) Donor 8,"human PBMCs; 20 μg/ml, 24 h",56 pg/mL
same,IFN-γ (pg/ml) Donor 8,"human PBMCs; 20 μg/ml, 24 h",419 pg/mL
same,IFN-α (pg/ml) mean,human PBMCs; [2],59 pg/mL
same,IFN-γ (pg/ml) mean,human PBMCs; [2],1289 pg/mL
same,IFN-α (pg/ml) mean,human PBMCs; [3],126 pg/mL
same,IFN-γ (pg/ml) mean,human PBMCs; [3],409 pg/mL
same,IFN-α (pg/ml) mean,human PBMCs; [4],31 pg/mL
same,IFN-γ (pg/ml) mean,human PBMCs; [4],212 pg/mL
same,"immunomodulatory activity (IFN-γ / IFN-α secretion), in words",human PBMCs,did have immunomodulatory activity
same,IFN,mouse splenocytes; dose 0.1 μg/ml,960
same,IL-6,mouse splenocytes; dose 0.1 μg/ml,458
same,IL-12,mouse splenocytes; dose 0.1 μg/ml,3359
same,IFN,mouse splenocytes; dose 1.0 μg/ml,3220
same,IL-6,mouse splenocytes; dose 1.0 μg/ml,11814
same,IL-12,mouse splenocytes; dose 1.0 μg/ml,4914
same,IFN,mouse splenocytes; dose 5.0 μg/ml,3342
same,IL-6,mouse splenocytes; dose 5.0 μg/ml,10098
same,IL-12,mouse splenocytes; dose 5.0 μg/ml,4279
same,cpm1,CD19+ B cells; donor 121,30367 cpm
same,cpm2,CD19+ B cells; donor 121,30412 cpm
same,cpm3,CD19+ B cells; donor 121,18528 cpm
same,mean cpm,CD19+ B cells; donor 121 mean,26436 cpm
same,cpm1,CD19+ B cells; donor 194,16967 cpm
same,cpm2,CD19+ B cells; donor 194,20898 cpm
same,cpm3,CD19+ B cells; donor 194,11253 cpm
same,mean cpm,CD19+ B cells; donor 194 mean,16373 cpm
same,mean of both,CD19+ B cells,21404 cpm
5′-TCGTCG-3′-HEG-5′-ACGTTCG-3′-HEG-5′-AGATGAT-3′ [Compound C-10],IFN-α (pg/ml) Donor 1,"human PBMCs; 20 μg/ml, 24 h",1662 pg/mL
same,IFN-γ (pg/ml) Donor 1,"human PBMCs; 20 μg/ml, 24 h",1595 pg/mL
same,IFN-α (pg/ml) Donor 2,"human PBMCs; 20 μg/ml, 24 h",50 pg/mL
same,IFN-γ (pg/ml) Donor 2,"human PBMCs; 20 μg/ml, 24 h",952 pg/mL
same,IFN-α (pg/ml) Donor 5,human PBMCs; [1],91 pg/mL
same,IFN-γ (pg/ml) Donor 5,human PBMCs; [1],102 pg/mL
same,IFN-α (pg/ml) Donor 6,human PBMCs; [1],1700 pg/mL
same,IFN-γ (pg/ml) Donor 6,human PBMCs; [1],806 pg/mL
same,IFN-α (pg/ml) Donor 7,"human PBMCs; 20 μg/ml, 24 h",46 pg/mL
same,IFN-γ (pg/ml) Donor 7,"human PBMCs; 20 μg/ml, 24 h",23 pg/mL
same,IFN-α (pg/ml) Donor 8,"human PBMCs; 20 μg/ml, 24 h",539 pg/mL
same,IFN-γ (pg/ml) Donor 8,"human PBMCs; 20 μg/ml, 24 h",198 pg/mL
same,IFN-α,"human PBMCs; Table 9, donor 28089",17 pg/mL
same,IFN-γ,"human PBMCs; Table 9, donor 28089",35 pg/mL
same,IFN-α,"human PBMCs; Table 9, donor 28090",61 pg/mL
same,IFN-γ,"human PBMCs; Table 9, donor 28090",44 pg/mL
same,IFN-α,"human PBMCs; Table 9, donor 28098",187 pg/mL
same,IFN-γ,"human PBMCs; Table 9, donor 28098",174 pg/mL
same,IFN-α,"human PBMCs; Table 9, donor 28099",304 pg/mL
same,IFN-γ,"human PBMCs; Table 9, donor 28099",140 pg/mL
same,IFN-α mean,"human PBMCs; Table 9, mean of donors",142 pg/mL
same,IFN-γ mean,"human PBMCs; Table 9, mean of donors",98 pg/mL
same,IFN-a,"human PBMCs; Table 25, donor 28250",16 pg/mL
same,IFN-g,"human PBMCs; Table 25, donor 28250, polynucleotides/spacers at amounts equivalent to the CIC, spacers alone 9 uM",337 pg/mL
same,IFN-a,"human PBMCs; Table 25, donor 28251",23 pg/mL
same,IFN-g,"human PBMCs; Table 25, donor 28251",163 pg/mL
same,IFN-a,"human PBMCs; Table 25, donor 28252",25 pg/mL
same,IFN-g,"human PBMCs; Table 25, donor 28252",776 pg/mL
same,IFN-a,"human PBMCs; Table 25, donor 28253",124 pg/mL
same,IFN-g,"human PBMCs; Table 25, donor 28253",898 pg/mL
same,IFN-a mean,human PBMCs; [5],47 pg/mL
same,IFN-g mean,human PBMCs; [5],544 pg/mL
same,IFN-γ (pg/ml) 28065,"human PBMCs; donor 28065 (high background), 20 ug/ml, 24 h, + PLGA = premixed with 100 μg/ml cPLGA, 1000 = outside assay limits",1000 pg/mL
same,IFN-α (pg/ml) 28065,"human PBMCs; donor 28065, 20 ug/ml, 24 h, + PLGA = premixed with 100 μg/ml cPLGA",116 pg/mL
same,IFN-α (pg/ml) 28066,human PBMCs; [6],6 pg/mL
same,IFN-γ (pg/ml) 28066,human PBMCs; [6],9 pg/mL
same,IFN-α (pg/ml) 28067,human PBMCs; [7],107 pg/mL
same,IFN-γ (pg/ml) 28067,human PBMCs; [7],51 pg/mL
same,IFN-α (pg/ml) 28068,human PBMCs; [8],340 pg/mL
same,IFN-γ (pg/ml) 28068,human PBMCs; [8],559 pg/mL
same,IFN-α (pg/ml) mean,human PBMCs; [2],856 pg/mL
same,IFN-γ (pg/ml) mean,human PBMCs; [2],1273 pg/mL
same,IFN-α (pg/ml) mean,human PBMCs; [3],896 pg/mL
same,IFN-γ (pg/ml) mean,human PBMCs; [3],454 pg/mL
same,IFN-α (pg/ml) mean,human PBMCs; [4],293 pg/mL
same,IFN-γ (pg/ml) mean,human PBMCs; [4],111 pg/mL
same,IFN-α (pg/ml) mean,human PBMCs; [9],142 pg/mL
same,IFN-γ (pg/ml) mean,human PBMCs; [9],405 pg/mL
same,"immunomodulatory activity (IFN-γ / IFN-α secretion), in words",human PBMCs,did have immunomodulatory activity
same,IFN,mouse splenocytes; dose 0.1 μg/ml,9
same,IL-6,mouse splenocytes; dose 0.1 μg/ml,9
same,IL-12,mouse splenocytes; dose 0.1 μg/ml,122
same,IFN,mouse splenocytes; dose 1.0 μg/ml,104
same,IL-6,mouse splenocytes; dose 1.0 μg/ml,1761
same,IL-12,mouse splenocytes; dose 1.0 μg/ml,1738
same,IFN,mouse splenocytes; dose 5.0 μg/ml,199
same,IL-6,mouse splenocytes; dose 5.0 μg/ml,3342
same,IL-12,mouse splenocytes; dose 5.0 μg/ml,2329
same,cpm1,CD19+ B cells; donor 121,15142 cpm
same,cpm2,CD19+ B cells; donor 121,14136 cpm
same,cpm3,CD19+ B cells; donor 121,16158 cpm
same,mean cpm,CD19+ B cells; donor 121 mean,15145 cpm
same,cpm1,CD19+ B cells; donor 194,7480 cpm
same,cpm2,CD19+ B cells; donor 194,5458 cpm
same,cpm3,CD19+ B cells; donor 194,5943 cpm
same,mean cpm,CD19+ B cells; donor 194 mean,6294 cpm
same,mean of both,CD19+ B cells,10720 cpm
